Reference: patent US20130252945A1, “AMORPHOUS BIOINORGANIC IONIC LIQUID COMPOSITIONS COMPRISING PHARMACEUTICALS” (priority 2012, published 2013)
Several values for one entry are separate records, joined by “and”; a condition that tells them apart may be missing. Equal entries are not always repeated. Structures can show the parent of a compound that is named as a salt.

Columns and labels:
[1] = Solubility at 1 mM in unbuffered water by eye and UV-Vis after filtration; assay type: physicochemical; settings: unbuffered water (pH 6.5), by eye
Protocol: Solubility of phenoxybenzamine hydrochloride and phenoxybenzamine-HCl—(ZnCl2)2 at 1 mM in unbuffered water (pH 6.5) was evaluated by eye and by UV-Vis spectroscopy after filtration through a 0.45 μm syringe filter.

[2] = assay type: physicochemical; settings: 3 h incubation at a constant 120° C.
[3] = Shelf life by model-free isoconversional kinetic analysis of TGA data; assay type: physicochemical
Protocol: Zinc(II) chloride (273 mg, 2 mmol) was added to a scintillation vial that had been heated, then cooled under vacuum and charged with dry argon. Phenoxybenzamine hydrochloride (340.3 mg, 1 mmol) was added to the vial with a stir bar and the mixture was degassed with stirring at 60° C. The vial was filled with argon, sealed with a cap, and stirred for 24 h at 80° C. to produce a clear, colorless glass. […] NMR spectra for ^1H and ^13C were obtained in d6-acetone. […] Spectra of phenoxybenzamine-HCl were performed with 0, 0.25, 0.5, 1.0, 1.5, 2.0, and 5.0 molar equivalents of ZnCl2 to observe this effect. Thermal decomposition after a 3 h incubation of the IL at a constant 120° C. was 2.7% of the starting mass. In contrast, the phenoxybenzamine hydrochloride starting material loses 38% of its mass after a similar incubation. The IL was soluble (>1 mM) in acetone, water and phosphate buffered to pH 6.0. The IL was insoluble (<1 mM) in toluene and tetrahydrofuran. […] The manufacturer's shelf life for 10 mg phenoxybenzamine hydrochloride tablets is 2 years, or 730 days, and the calculated value for solid phenoxybenzamine hydrochloride (5% decay at 20° C.) was 750 days (2.05 years), indicating good agreement of the calculation with actual shelf life. […]

[4] = Storage under Ar, observation for crystalline domains over 6 months; assay type: physicochemical; settings: stored under Ar, observed over 6 months
[5] = system: Pseudomonas aeruginosa biofilms (clinical isolate from sputum); experiment: Challenge of established biofilms (72 h) with test compound, CFU count; assay type: cell-based; settings: 6 h at 37° C.
[6] = Decomposition temperature by TGA; assay type: physicochemical; settings: for Tdec (decomposition temperature): TGA under N2, 20° C. per minute
Protocol: (§1) Melting points of all purchased materials were determined in a capillary tube using a MeI-Temp apparatus (Barnstead/Thermo Scientific). NMR data sets were collected on a 300 MHz Bruker instrument using sample concentrations of 50 mM. Infrared spectra were measured using an Avatar 360 FT-IR ESP (ThermoElectron-Nicolet, Waltham, Mass.) equipped with a Smart DuraSamplIR horizontal attenuated total reflectance (HATR) accessory. Raman spectra were measured using a Thermo-Nicolet 470 FTIR with Nd:YAG laser excitation and HgCdTe detector. Viscosity was measured on 1 mL samples with a Viscolab 3000 viscometer (Cambridge Viscosity, Medford, Mass.). Samples were heated to 90° C., except when otherwise specified, and viscosity was recorded in 2 degree increments between 50 and 90° C. with 8 min equilibration at each temperature. Thermal characterization was carried out using a Q100 DSC and a Q500 TGA (both from TA Instruments, New Castle, Del.). DSC was performed using a 5-10 mg sample in a 40 μL aluminum crucible sealed in the glovebox. A temperature range from −60 to 150° C. was scanned twice, at ramp rates of 5° C./min and 10° C./min. TGA was performed under N2 atmosphere over a temperature range from 25-800° C. with a ramp rate of 20° C. per minute and a sample size of 10 mg.

[7] = Viscosity (Viscolab 3000 viscometer); assay type: physicochemical; settings: at 90° C.
Protocol: as §1

[8] = system: Pseudomonas aeruginosa culture; experiment: Biofilm growth on IL-coated culture plates; assay type: cell-based; settings: 100 μL IL per well, counted after 72 h, limit of detection
Protocol: (§2) A second example of clear, colorless antimicrobial films formed by compositions described herein was shown with an assay that involved coating culture plates with IL and observing the biofilm growth on the coated surface. […] Aliquots of 100 μL of either a Staphylococcus aureus culture, an E. coli culture, or a Pseudomonas aeruginosa culture were added to each coated well, the plate was fed with fresh media every 24 h, and cells were counted after 72 h, as described above. The number of cells in the treated wells was below the limit of detection of the assay of 1000 cfu/mL, as compared with normal cell counts for the LB control wells, indicating high antimicrobial efficacy of the IL coating. Because bacteria colonize a surface prior to barnacles and other organisms, proof of antibacterial effects is key to showing anti-biofouling potential in aquatic environments.

[9] = system: Staphylococcus aureus culture; experiment: Biofilm growth on IL-coated culture plates; assay type: cell-based; settings: 100 μL IL per well, counted after 72 h, limit of detection
Protocol: as §2

E. coli culture = experiment: Biofilm growth on IL-coated culture plates; assay type: cell-based; settings: 100 μL IL per well, counted after 72 h, limit of detection
Protocol: as §2

[10] = Solubility in solvents (soluble / insoluble); settings: organic solvent or mixture

CC(COc1ccccc1)N(CCCl)Cc1ccccc1.Cl.[Cl][Zn][Cl].[Cl][Zn][Cl] (stereo not drawn) [phenoxybenzamine-HCl—(ZnCl2)2, Phenoxybenzamine-HCl—(ZnCl2)2]
solubility in unbuffered water (appeared to completely dissolve) [1]: ≥ 1 mM and ≥ 0.34 mg/mL
thermal decomposition (loss of starting mass) [2]: 2.7%
improvement of shelf life over solid phenoxybenzamine hydrochloride ([3]; at 20° C., 5% decomposition): 7.7 fold
improvement of shelf life over standard formulation in syrup and propylene glycol ([3]; compared with 4-day refrigerator shelf life): 1500 fold
appearance of crystalline domains on storage [4]: no crystalline domains appeared

CC(C)(C)CC(C)(C)c1ccc(OCCOCC[N+](C)(C)Cc2ccccc2)cc1 [benzethonium chloride, Benzethonium chloride]
viable dispersed cell count (conservative estimate) ([5]; 78 mM in LB, formed precipitate): ~5×10^4 cfu/mL

Procainamide-HCl—(ZnCl2)2
Tdec (decomposition temperature) [6]: 291.0 °C
appearance of crystalline domains on storage [4]: no crystalline domains appeared

CC(COc1ccccc1)N(CCCl)Cc1ccccc1 (stereo not drawn) [phenoxybenzamine hydrochloride, Phenoxybenzamine hydrochloride, reference compound]
thermal decomposition (loss of starting mass) [2]: 38%

CCCC[N+]1(C)CCCC1.O=S(=O)([N-]S(=O)(=O)C(F)(F)F)C(F)(F)F [BMP-NTf2, 1-butyl-1-methypyrrolidinium bistriflimide]
cell count of biofilm after challenge ([5]; neat): 2×10^5

CNC(=C[N+](=O)[O-])NCCSCc1ccc(CN(C)C)o1.Cl.[Cl][Zn][Cl].[Cl][Zn][Cl]
Tdec (decomposition temperature) [6]: 230.9 °C
appearance of crystalline domains on storage [4]: no crystalline domains appeared

Ethambutol-(HCl)2—(ZnCl2)2
Viscosity [7]: 17350 cP
appearance of crystalline domains on storage [4]: no crystalline domains appeared

[Cl-].[Na+] [NaCl]
cell count of biofilm after challenge ([5]; 5 M in LB, control for ionic strength): 1×10^6 cells

[Cl-].[Cl-].[Zn+2] [ZnCl2, Zinc(II) chloride]
cell count of biofilm after challenge ([5]; 1.8 M in LB): 4×10^5

CC(C)(C)CC(C)(C)c1ccc(OCCOCC[N+](C)(C)Cc2ccccc2)cc1 [benzethonium-Cl—(ZnCl2)2, Benzethonium-Cl—(ZnCl2)2]
number of cells in treated (IL-coated) wells [8]: < 1000 cfu/mL
number of cells in treated (IL-coated) wells [9]: < 1000 cfu/mL
number of cells in treated (IL-coated) wells (E. coli culture): < 1000 cfu/mL

CN1[C@@H]2CC[C@H]1CC(OC(=O)C(O)c1ccccc1)C2 (stereo partly drawn) [Homatropine-HCl—(ZnCl2)2]
solubility ([10]; dimethylsulfoxide): > 1000 µM
solubility ([10]; toluene): < 1000 µM
ΔTdec (increase in decomposition temperature relative to HCl starting material) ([6]; TGA): +7.8 °C
appearance of crystalline domains on storage [4]: no crystalline domains appeared

CN(C)CCCN1c2ccccc2CCc2ccccc21.Cl.[Cl][Zn][Cl].[Cl][Zn][Cl] [Imipramine-HCl—(ZnCl2)2]
appearance of crystalline domains on storage [4]: no crystalline domains appeared
